Values joined by “and” are separate entries in the source; they are usually repeats but may differ in a detail not shown here. Equal entries are not always repeated.
Key:
GK rats [1] = experiment: 13C-labeled glucose tolerance test (tissue 13C-glycogen); type: in vivo; conditions: GK rat, 13C-GTT after sub-chronic treatment; vs MK-8666 or vehicle
Method: On day 0, GK rats were selected and sorted into treatment groups based on ambient glucose measured via glucometer at 1 h post lights on. MK-8666 at 30 mg/kg was administered in feed (Research Diets) and provided ad lib on day 0. On days 1–6, rats were dosed via oral gavage (PO) at a volume of 5 ml/kg daily at approximately 12:30 PM with either vehicle (0.5% methylcellulose) or AP1 at 10 mg/kg. Rats from the MK-8666 group were administered vehicle PO at this time. On day 7, ambient glucose was measured 1 hr post lights on and food was removed. After approximately 5 hrs fasting, glucose was measured at time = - 60 min, followed by PO administration of vehicle or AP1. […] Blood glucose was then measured at t = 20, 40, 60, 120 minutes post challenge. […]
Glycogen is a primary site of glucose disposal in both liver and muscle; however glycogen was not preserved in our tissue extraction protocol. To quantify tissue 13C-glycogen, a separate piece of tissue from each sample was analyzed. […] The resulting glycogen-derived glucose solution was analyzed for total glucose using a glucose oxidase / horseradish peroxidase assay kit and fluorescence-based product detection according to the manufacturers’ instructions (BioVision Glycogen Assay Kit, Milpitas, CA).

GK rats [2] = experiment: Endogenous glucose production in vivo (2H/13C dual tracer); design: species or system rat;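 for Glucose production, EGP Total: micromoles per kg body weight per minute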;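 for Glucose production, Glycerol: absolute flux in micromoles per kg per minute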;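 for Glucose production, Glycogen: absolute flux in micromoles per kg per minute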;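 for Glucose production, TCA: absolute flux in micromoles per kg per minute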
Method: To evaluate the effects of the GPR40 partial and AgoPAM compounds on EGP in vivo, a 2H/13C dual tracer approach was used to calculate EGP and its contributing sources. Following the chronic treatments described above, 0.9% NaCl salinated deuterium oxide (D2O, Sigma-Aldrich, St. Louis, MO) was administered to all animals via intraperitoneal (IP) injection at dose volume of 20 ml/kg at 1 hr post lights on. Animals were then placed in clean cages and food was removed. After a 5 hour fast, blood glucose was measured and animals were dosed with 50 mg/kg [U-13C] glucose (Sigma-Aldrich, St. Louis, MO) IP at 5 ml/kg. Blood was collected via tail snip at time points from 60–150 min post treatment to measure blood glucose (via glucometer) as well as endogenous (12C-glucose) and exogenous (13C-glucose) via GCMS. Following the last tail blood collection, rats were anesthetized with isoflurane and cardiac blood was collected into K2EDTA tubes (Becton, Dickinson and Co., Franklin Lakes, NJ).
The serially collected blood samples were analyzed for 13C-glucose enrichment using GC-MS analysis. The % 13C glucose enrichments were then combined with the total glucose readings to calculate the concentration of 13C-glucose, and these values were modeled with a two-compartment model of whole body glucose metabolism to calculate the average EGP for the period from 0–150 minutes.
Terminal blood samples were analyzed for relative 2H enrichment in plasma glucose using the monoacetone glucose method. Briefly, samples were extracted with 70% perchloric acid at a ratio of 50 μl perchloric acid per 1 ml plasma and centrifuged at 25,000 rcf for 10 min at 4°C. The supernatant was collected and the pH was adjusted to 6–8 using aqueous KOH. The samples were then lyophilized overnight. To convert plasma glucose to monoacetone glucose (MAG), acetone and concentrated sulfuric acid were added to the lyophilized samples and stirred for 4 hours at room temperature. Water was then added and the pH adjusted to 2.0 with 3M Na2CO3. Samples were stirred moderately for 18 hours at room temperature, the pH was adjusted to 7 with 3M Na2CO3, and the samples were completely dried by speed vacuum concentration. The resulting MAG samples were then extracted in hot ethyl acetate, dried overnight under a stream of N2 gas, and purified using Discovery DSC-18 SPE columns (6 ml, 1 g bed weight). For the SPE protocol, MAG samples were reconstituted in 3 ml water and passed over the columns which were pre-washed with 2 ml methanol. The columns were rinsed twice with 1 ml water and the MAG was eluted with 5% acetonitrile. The acetonitrile eluent was then transferred to a glass scintillation vial and freeze dried. Purified MAG samples were solubilized in 180 μl 90% acetonitrile for 2H NMR analysis which was performed using the lock channel of a 950 MHz Bruker NMR spectrometer (David H Murdock Research Institute, DHMRI Kannapolis, NC). Acquisition parameters were as follows: 90° pulse, D1 = 1 s, 1H broadband decoupling, NS = 3600, acquisition time ~ 1 hr. The 2H NMR spectra of the MAG samples were then analyzed using Matlab (The Mathworks Inc, Natick, MA) to model the NMR peaks with a Lorentzian lineshape, and the results were used to calculate integrals for each of the seven NMR resonances in the MAG spectrum. Peaks 2, 5, and 6s were then used to calculate the relative sources of EGP (i.e. gluconeogenesis from TCA cycle substrates, glucose production from triose phosphates, and glycogenolysis) and these values were combined with the total EGP measurement to calculate absolute fluxes of glucose production.

[3] = GK rats, 30 mpk, individual animal values (data for Fig 8), 30 mg/kg

SMILES	skeletal muscle 13C-glycogen levels (GK rats [1])	endogenous glucose production (EGP) (GK rats [2]; GK rat, following chronic treatment)	Glucose production, EGP Total (GK rats [2]; [3])	Glucose production, Glycerol (GK rats [2]; [3])	Glucose production, Glycogen (GK rats [2]; [3])	Glucose production, TCA (GK rats [2]; [3])
COc1ccc(F)c(-c2ccc([C@@H]3CCc4ccc([C@H](C5CC5)[C@H](C)C(=O)O)cc4O3)cc2)c1 [AP1]	increased					
Cc1cc(OCCCS(C)(=O)=O)cc(C)c1-c1cccc(COc2cc3c(cn2)[C@H]2[C@@H](C3)[C@@H]2C(=O)O)c1 [MK-8666]		reduced	47.3366 µmol/kg/min and 49.7015 µmol/kg/min and 23.1675 µmol/kg/min and 46.5921 µmol/kg/min and 49.3944 µmol/kg/min and 59.3105 µmol/kg/min and 53.4963 µmol/kg/min	8.397 µmol/kg/min and 6.008 µmol/kg/min and 2.752 µmol/kg/min and 6.734 µmol/kg/min and 8.91 µmol/kg/min and 9 µmol/kg/min and 9.76 µmol/kg/min	15.2782 µmol/kg/min and 19.9182 µmol/kg/min and 7.082 µmol/kg/min and 20.1227 µmol/kg/min and 18.1009 µmol/kg/min and 21.3139 µmol/kg/min and 17.6544 µmol/kg/min	23.6618 µmol/kg/min and 23.7752 µmol/kg/min and 13.3332 µmol/kg/min and 19.7357 µmol/kg/min and 22.3838 µmol/kg/min and 28.9962 µmol/kg/min and 26.0816 µmol/kg/min

— paper PMC5650142, “GPR40 partial agonists and AgoPAMs: Differentiating effects on glucose and hormonal secretions in the rodent” (PLoS ONE, 2017)
